From patent US10449152B2, “Drug loaded microspheres for post-operative chronic pain” (priority 2014, dated 2019)

Assays:
sciatic nerve [1] = assay: sciatic nerve block in rats (paw pinch, motor block); format: in vivo; settings: single bolus of about 0.4 milliliters at the sciatic nerve
Protocol: The microspheres of Example 1 were also tested for sciatic nerve block and for subcutaneous infiltration anesthesia in rats. Sciatic nerves were injected with nominal doses of microspheres of Example 1, having about 40 milligrams of bupivacaine, by injection as a single bolus of about 0.4 milliliters. […] Half-recovery of these respective functions occurred at about 42±6 hours and 36±3 hours, and normal, pre-block function was restored by about 63±8 hours for nociception and about 56±7 hours for motor block. By comparison, injection of about 0.4 milliliters of about 0.5% by weight aqueous bupivacaine solution gave complete blocks for only about 0.5 hours to about 1 hours for nociception and about 1 hour for motor functions, with complete recovery by about 3 hours for both functions.

[2] = test system: post-operative hyperalgesia after paw incision; assay: paw incision post-operative hyperalgesia, injection at the sciatic nerve; format: in vivo, rats; settings: nerve block before paw incision
Protocol: Microspheres of Example 1 were also tested for anti-hyperalgesic effects after rodent surgery. […] If microspheres of Example 1 were injected at the sciatic nerve approximately 1.5 hours before the surgery, the subsequent post-operative hyperalgesia was suppressed for about 4 days. In contrast, nerve block by 0.5% by weight aqueous bupivacaine solution suppressed post-operative hyperalgesia for about 6 hours. Microspheres of Example 2 were ineffective against post-incisional pain.

[3] = test system: post-operative allodynia and hyperalgesia; assay: incision and blunt dissection of the back skin, post-operative allodynia and hyperalgesia; format: in vivo, rats; settings: about 0.4 milliliters subcutaneous infiltration
Protocol: In a second surgical scenario, Microspheres of Example 1 were injected as a subcutaneous infiltration in the thoraco-lumbar region before an incision and blunt dissection of the back skin. Microspheres of Example 1, including about 40 milligrams of bupivacaine, were injected as a single bolus of about 0.4 milliliters. The injection produced anesthesia to VFH pokes at the injected area for about 6 hours and anesthesia to pin pricks for about 12 hours. Post-operative allodynia and hyperalgesia in this model lasted for about 14 days, but were suppressed for approximately 5 days and 3 days, respectively, by microspheres of Example 1 injected approximately 2 hours before surgery. About 0.4 milliliters of 0.5% by weight aqueous bupivacaine solution was ineffective in reducing post-operative hypersensitivity, just as the microspheres of Example 2 were also ineffective.

sciatic nerve [4] = assay: sciatic nerve block, latency for leg withdrawal from noxious heat; format: in vivo, male S-D rats; settings: about 0.6 milliliters next to the sciatic nerve; heat stimulus of about 56° C.
Protocol: The anti-nociceptive activity of EXPAREL® particles was also tested. The latency for leg withdrawal in male S-D rats from a noxious heat stimulus of about 56° C. applied to the plantar surface of the paw was used to test the duration of functional sciatic nerve block achieved using EXPAREL®. The normal latency for paw withdrawal was about 2 seconds and “maximal sensory blockade” was characterized by a latency of about 12 seconds. Sensory blockade of about 0.6 milliliters of EXPAREL® containing about 7.8 milligrams of bupivacaine, injected next to the sciatic nerve of an adult male S-D rat weighing from about 310 grams to about 420 grams, which was equivalent to about 25 milligrams of bupivacaine per kilogram, was determined by the time from injection until the latency returned to about 7 seconds, half way back to the pre-injection latency of about 2 seconds. By this criterion, the sensing block from EXPAREL® lasted about 240 minutes, and that from 0.6 milliliter solution of about 0.5% by weight bupivacaine, which was used as a control, lasted about 120 minutes.

## CCCCN1CCCCC1C(=O)Nc1c(C)cccc1C (stereo not drawn) [bupivacaine]
Sciatic nerve [1]
  duration of complete motor block (total flaccid paralysis): about 1 hours
  time to normal, pre-block function (complete recovery), motor: about 3 hours
  time to normal, pre-block function (complete recovery), nociception: about 3 hours
[2]
  time for which post-operative hyperalgesia was suppressed: about 6 hours
[3]
  reduction of post-operative hypersensitivity: ineffective
Sciatic nerve [4]
  duration of sensory block (time until latency returned to about 7 seconds): about 120 minutes
